Measurements taken from US11390604B2 (Hoffmann-La Roche Inc., priority 2019, dated 2022).
Structures can show the parent of a compound that is named as a salt.

Tested on: Acinetobacter baumannii ATCC 17961
Test: Antimicrobial susceptibility testing: 90% growth inhibitory concentration (IC90) determination
Assay type: cell-based
Conditions: ATCC17961, Acinetobacter baumannii ATCC 17961, Iso-Sensitest broth, read-out: ATCC 17961 IC90
Procedure, shortened: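 Growth was followed kinetically by OD600 at 20-min intervals for 16 h at 35±2 °C, with ~5×10^5 CFU/ml in Iso-Sensitest broth. Compounds were tested as twofold dilutions (e.g. 50–0.097 μM final). The concentration giving 90% inhibition of log-phase growth was reported.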

IC90 [µM] | Compound
0.364 | Cn1c(-c2cn(CC3CCC3)nc2C(F)(F)F)cnc1C(=O)Nc1ccc(C(=O)N2CCN(C(=O)[C@H]3C[C@@H](N)C3)CC2)c(Cl)c1 [Example 295, rac-N-(4-(4-((1s,3s)-3-aminocyclobutane-1-carbonyl)piperazine-1-carbonyl)-3-chlorophenyl)-5-(1-(cyclobutylmethyl)-3-(trifluoromethyl)-1H-pyrazol-4-yl)-1-methyl-1H-imidazole-2-carboxamide hydrochloride]
0.364 | CCn1cc(-c2cnc(C(=O)Nc3ccc(C(=O)N4CCN(C(=O)N[C@H]5C[C@@H](N)C5)CC4)c(Cl)c3)n2C)c(C(F)(F)F)n1 [Example 296, N-(3-aminocyclobutyl)-4-[2-chloro-4-[[5-[1-ethyl-3-(trifluoromethyl)pyrazol-4-yl]-1-methylimidazole-2-carbonyl]amino]benzoyl]pipera-zine-1-carboxamide;formic acid]
0.365 | CN1CCN(C(=O)N2CCN(C(=O)c3ccc(NC(=O)c4ncc(-c5cn(C6CC6)nc5C(F)(F)F)n4C)cc3Cl)CC2)CC1 [Example 297, N-(3-chloro-4-(4-(4-methylpiperazine-1-carbonyl)piperazine-1-carbonyl)phenyl)-5-(1-cyclopropyl-3-(trifluoromethyl)-1H-pyrazol-4-yl)-1-methyl-1H-imidazole-2-carboxamide]
0.365 | Cn1c(-c2cn(CCF)nc2C(F)(F)F)cnc1C(=O)Nc1ccc(C(=O)N2CCN(C(=O)[C@H]3C[C@H](N)C3)CC2)c(Cl)c1 [Example 298, N-[4-[4-(3-aminocyclobutanecarbonyl)piper-azine-1-carbonyl]-3-chlorophenyl]-5-[1-(2-fluoroethyl)-3-(trifluoromethyl)pyrazol-4-yl]-1-methylimidazole-2-carboxamide;trihydrochloride]
0.366 | Cn1c(-c2cn(C3CC3)nc2C(F)(F)F)cnc1C(=O)Nc1ccc(C(=O)N2CCN(C(=O)[C@H]3CCNC3)CC2)c(Cl)c1 [Example 299, (S)-N-(3-chloro-4-(4-(pyrrolidine-3-carbonyl)piperazine-1-carbonyl)phenyl)-5-(1-cyclopropyl-3-(trifluoromethyl)-1H-pyrazol-4-yl)-1-methyl-1H-imidazole-2-carboxamide hydrochloride]
0.369 | Cn1c(-c2cn(CC(F)F)nc2C(F)(F)F)cnc1C(=O)Nc1ccc(C(=O)N2CCN(C(=O)C3CCNCC3)CC2)c(F)c1 [Example 301, 5-(1-(2,2-difluoroethyl)-3-(trifluoromethyl)-1H-pyrazol-4-yl)-N-(3-fluoro-4-(4-(piperidine-4-carbonyl)piperazine-1-carbonyl)phenyl)-1-methyl-1H-imidazole-2-carboxamide]
0.37 | Cn1c(-c2cn(C3CC3)nc2C(F)(F)F)cnc1C(=O)Nc1ccc(C(=O)N2CCN(C(=O)CCCN)CC2)c(Cl)c1 [Example 302, N-(4-(4-(4-aminobutanoyl)piperazine-1-carbonyl)-3-chlorophenyl)-5-(1-cyclopropyl-3-(trifluoromethyl)-1H-pyrazol-4-yl)-1-methyl-1H-imidazole-2-carboxamide hydrochloride]
0.371 | Cn1c(-c2cn(CC(F)F)nc2C(F)(F)F)cnc1C(=O)Nc1ccc(C(=O)N2CCN(C(=O)NCC3(O)CNC3)CC2)c(Cl)c1 [Example 303, 4-[2-chloro-4-[[5-[1-(2,2-difluoroethyl)-3-(trifluoromethyl)pyrazol-4-yl]-1-methyl-imidazole-2-carbonyl]amino]benzoyl]-N-[(3-hydroxyazetidin-3-yl)methyl]piperazine-1-carboxamide; formic acid]
0.371 | Cn1c(-c2cn(CC3CCCC3)nc2C(F)(F)F)cnc1C(=O)Nc1ccc(C(=O)N2CCN(C(=O)C3CCNCC3)CC2)c(Cl)c1 [Example 304, N-(3-chloro-4-(4-(piperidine-4-carbonyl)piperazine-1-carbonyl)phenyl)-5-(1-(cyclopentylmethyl)-3-(trifluoromethyl)-1H-pyrazol-4-yl)-1-methyl-1H-imidazole-2-carboxamide hydrochloride]
0.373 | Cn1c(-c2cn(CC(F)(F)F)nc2C(F)(F)F)cnc1C(=O)Nc1ccc(C(=O)N2CCN(C(=O)N[C@H]3C[C@@H](N)C3)CC2)c(Cl)c1 [Example 305, rac-N-((1s,3s)-3-aminocyclobutyl)-4-(2-chloro-4-(1-methyl-5-(1-(2,2,2-trifluoroethyl)-3-(trifluoromethyl)-1H-pyrazol-4-yl)-1H-imidazole-2-carboxamido)benzoyl)piperazine-1-carboxamide hydrochloride]
0.374 | Cn1c(-c2cn(C3CC3)nc2C(F)(F)F)cnc1C(=O)Nc1ccc(C(=O)N[C@H]2[C@@H]3CN(C(=O)C4CCNCC4)C[C@@H]32)c(Cl)c1 [Example 306, N-(3-chloro-4-((exo-3-(piperidine-4-carbonyl)-3-azabicyclo[3.1.0]hexan-6-yl)carbamoyl)phenyl)-5-(1-cyclopropyl-3-(trifluoromethyl)-1H-pyrazol-4-yl)-1-methyl-1H-imidazole-2-carboxamide]
0.375 | Cn1c(-c2cn(CC=C(F)F)nc2C(F)(F)F)cnc1C(=O)Nc1ccc(C(=O)N[C@H]2C[C@@H](N)C2)c(Cl)c1 [Example 307, rac-N-(4-(((1s,3s)-3-aminocyclobutyl)carbamoyl)-3-chlorophenyl)-5-(1-(3,3-difluoroallyl)-3-(trifluoromethyl)-1H-pyrazol-4-yl)-1-methyl-1H-imidazole-2-carboxamide 2,2,2-trifluoroacetate]

Second part, the compound before the results:

Compound | IC90 [µM]
Cn1c(-c2cn(CC(F)F)nc2C(F)(F)F)cnc1C(=O)Nc1ccc(S(=O)(=O)N2CCN(C(=O)CN)CC2)cc1 [Example 282, 5-(1-(2,2-difluoroethyl)-3-(trifluoromethyl)-1H-pyrazol-4-yl)-N-(4-((4-glycylpiperazin-1-yl)sulfonyl)phenyl)-1-methyl-1H-imidazole-2-carboxamide formate] | 0.348
CCn1cc(-c2cnc(C(=O)Nc3ccc(C(=O)NCCCCCCN)c(Br)c3)n2C)c(C(F)(F)F)n1 [Example 284, N-(4-((6-aminohexyl)carbamoyl)-3-bromophenyl)-5-(1-ethyl-3-(trifluoromethyl)-1H-pyrazol-4-yl)-1-methyl-1H-imidazole-2-carboxamide hydrochloride] | 0.35
Cn1c(-c2cn(C3CC3)nc2C(F)(F)F)cnc1C(=O)Nc1ccc(C(=O)N2CCN(C(=O)[C@@H](N)CCCN)CC2)c(Cl)c1 [Example 285, (S)-N-(3-chloro-4-(4-(2,5-diaminopentanoyl)piperazine-1-carbonyl)phenyl)-5-(1-cyclopropyl-3-(trifluoromethyl)-1H-pyrazol-4-yl)-1-methyl-1H-imidazole-2-carboxamide dihydrochloride] | 0.351
Cn1c(-c2cn(C3CC3)nc2C(F)(F)F)cnc1C(=O)Nc1ccc(C(=O)N2CCN(C(=O)C3CNCC(O)C3)CC2)c(Cl)c1 (stereo not shown) [Example 286, N-[3-chloro-4-[4-(5-hydroxypiperidine-3-carbonyl)piperazine-1-carbonyl]phenyl]-5-[1-cyclopropyl-3-(trifluoromethyl)pyrazol-4-yl]-1-methylimidazole-2-carboxamide;hydrochloride] | 0.351
Cn1c(-c2cn(C3CC3)nc2C(F)(F)F)cnc1C(=O)Nc1ccc(C(=O)N2CCN(C(=O)[C@@H]3CCC[C@@H](N)C3)CC2)c(Cl)c1 [Example 287, N-(4-(4-((1R,3R)-3-aminocyclohexane-1-carbonyl)piperazine-1-carbonyl)-3-chlorophenyl)-5-(1-cyclopropyl-3-(trifluoromethyl)-1H-pyrazol-4-yl)-1-methyl-1H-imidazole-2-carboxamide hydrochloride] | 0.352
Cn1c(-c2cn(C3CC3)nc2C(F)(F)F)cnc1C(=O)Nc1ccc(C(=O)NC[C@H]2CC[C@H](N)CC2)c(Cl)c1 [Example 289, rac-N-(4-((((1r,4r)-4-aminocyclohexyl)methyl)carba-moyl)-3-chlorophenyl)-5-(1-cyclopropyl-3-(trifluoromethyl)-1H-pyrazol-4-yl)-1-methyl-1H-imidazole-2-carboxamide hydrochloride] | 0.354
Cn1c(-c2cn(CC(F)F)nc2C(F)(F)F)cnc1C(=O)Nc1ccc(C(=O)N2CCN(CCN)CC2)c(Cl)c1 [Example 290, N-(4-(4-(2-aminoethyl)piperazine-1-carbonyl)-3-chlorophenyl)-5-(1-(2,2-difluoroethyl)-3-(trifluoromethyl)-1H-pyrazol-4-yl)-1-methyl-1H-imidazole-2-carboxamide formate] | 0.358
Cc1cc(NC(=O)c2ncc(-c3cn(CC#N)nc3C(F)(F)F)n2C)ccc1S(C)(=O)=NCCCN (stereo not shown) [Example 291, N-[4-[N-(3-aminopropyl)-S-methyl-sulfonimidoyl]-3-methyl-phenyl]-5-[1-(cyanomethyl)-3-(trifluoromethyl)pyrazol-4-yl]-1-methyl-imidazole-2-carboxamide; formic acid] | 0.359

Same assay, conditions: Acinetobacter baumannii, ATCC17961, read-out: ATCC 17961 IC90, Acinetobacter baumannii ATCC 17961, Iso-Sensitest broth

Compound | IC90 [µM]
CC(C)Cn1cc(-c2cnc(C(=O)Nc3ccc(C(=O)N4CCN(C(=O)N[C@H]5C[C@@H](N)C5)CC4)c(Cl)c3)n2C)c(C(F)(F)F)n1 [Example 292, rac-N-((1s,3s)-3-aminocyclobutyl)-4-(2-chloro-4-(5-(1-isobutyl-3-(trifluoromethyl)-1H-pyrazol-4-yl)-1-methyl-1H-imidazole-2-carboxamido)benzoyl)piperazine-1-carboxamide hydrochloride] | 0.361
Cn1c(-c2cn(CC3CC(F)(F)C3)nc2C(F)(F)F)cnc1C(=O)Nc1ccc(C(=O)N2CCN(C(=O)N[C@H]3C[C@@H](N)C3)CC2)c(Cl)c1 [Example 293, rac-N-((1s,3s)-3-aminocyclobutyl)-4-(2-chloro-4-(5-(1-((3,3-difluorocyclobutypmethyl)-3-(trifluoromethyl)-1H-pyrazol-4-yl)-1-methyl-1H-imidazole-2-carboxamido)benzoyl)piperazine-1-carboxamide hydrochloride] | 0.363
